# Test results: patent US20210349099A1, “CANCER BIOMARKERS AND METHODS OF USE THEREOF” (X4 Pharmaceuticals, Inc., priority 2017, published 2021)
# What was measured:
# in vivo = assay: in vivo
# Experimental: In certain embodiments, the dosage composition may be provided twice a day in divided dosage, approximately 12 hours apart. In other embodiments, the dosage composition may be provided once daily. […] Dosage for oral administration may be from about 100 mg to about 1200 mg once or twice per day.
# [1] = tested on: metastatic melanoma human tumor sample; assay: Single-marker IHC of melanoma patient tumor samples (HALO); format: in vivo
# Experimental: Single-marker IHC (CD8 and granzyme B) and multiplex IHC staining were analyzed using HALO™ spatial analysis tools, and the entire tumor area of each specimen was scored. (See Tunstall, “Quantifying Immune Cell Distribution in the Tumor Microenvironment Using HALO™ Spatial Analysis Tools,” Application Note, July […], (Indica Labs), accessed Nov. 1, 2017, on https://thepathologist.com/fileadmin/issues/App_Notes/0016-010-halo-app-note.pdf). See also Sherry et al., “Utilizing multiplex chromogenic IHC and digital image analysis to evaluate immune cell content and spatial distribution within NSCLC tumor tissue” Cancer Research (2017) 77(13) Supp: Abstract 2937. CD8 was measured using a mouse monoclonal antibody (DAKO catalog #M7103, lot #20029542). A Leica Bond RX Autostainer was used following standard protocols. For granzyme B, a mouse monoclonal antibody was used (DAKO #M7235). A Leica Bond RX Autostainer was used following standard protocols.
# Single-marker IHC was also used to measure CD3, FoxP3, and Ki67. For CD3, a rabbit polyclonal antibody was used (DAKO catalog #A0452, lot #20020069). A Leica Bond RX Autostainer was used following standard protocols. For FoxP3, a mouse monoclonal antibody was used (Abcam catalog #ab20034, lot #GR251424-1). A Leica Bond RX Autostainer was used following standard protocols. […]
# melanoma lesions = assay: CD8/Ki67/melanoma staining with nearest neighbor spatial analysis of biopsies; format: in vivo, human
# Experimental: Tumor samples obtained from melanoma patients were formalin-fixed and paraffin-embedded (FFPE) according to known procedures. FFPE tissue sections were baked for 1 hour at 60° C. The slides were dewaxed and stained on a Leica BOND Rx stainer (Leica, Buffalo Grove, Ill.) using Leica Bond reagents for dewaxing (Dewax Solution), antigen retrieval and antibody stripping (Epitope Retrieval Solution 2), and rinsing after each step (Bond Wash Solution). A high stringency wash was performed after the secondary and tertiary applications using high-salt TBST solution (0.05 M Tris, 0.3M NaCl, and 0.1% Tween-20, pH 7.2-7.6).
# Multiplex IHC staining was analyzed using HALO™ spatial analysis tools, and the entire tumor area of each specimen was scored. (See Tunstall, “Quantifying Immune Cell Distribution in the Tumor Microenvironment Using HALO™ Spatial Analysis Tools,” Application Note, July […], (Indica Labs), accessed Nov. 1, 2017, on https://thepathologist.com/fileadmin/issues/App_Notes/0016-010-halo-app-note.pdf). See also Sherry et al., Cancer Research 77(13) Supp: Abstract 2937 (2017).
# Slides were sequentially stained with antibody panels after rounds of heat-induced epitope retrieval and detected by antibody-binding HRP-containing polymers in conjunction with fluorescent tyramide substrate (Opal, Perkin-Elmer). DAPI was used as a nuclear counterstain. Fluorochromes with spectral overlap were imaged using spectral deconvolution and autofluorescence-subtraction (Vectra 3.0, Perkin-Elmer). Whole-slide scans were imaged using the Aperio-FL System (Leica Biosystems) and transferred into Halo for quantitative digital image analysis. After the cells were visualized based on nuclear recognition (DAPI stain), the software measured fluorescence intensity of the estimated cytoplasmic areas of each cell. A mean intensity threshold above background was used to determine positivity for each fluorochrome within the cytoplasm, thereby, defining cells as either positive or negative for each marker. The positive cell data was then used to define colocalized populations and to perform nearest neighbor spatial analysis.
# Staining for CD4, CD8, PD-1, PD-L1, CD163/CD68 (macrophage), FoxP3, Ki-67, and melanoma cells was accomplished using the antibodies listed in TABLE 3 and 4. OPAL Polymer HRP Mouse plus Rabbit (Perkin-Elmer, Hopkington, Mass.) was used for all secondary applications. […]
# Representative distance measurements between CD8^+ T cells and their nearest melanoma cell neighbors are shown in FIG. 13 (Day 1), FIG. 14 (Week 4), and FIG. 15 (End of treatment). Whole slide scans were performed using a fluorescence slide scanner (Aperio-FL, 20× objective). […]
structure (smiles),measurement,setting,value
NCCCCN(Cc1nc2ccccc2[nH]1)[C@H]1CCCc2cccnc21 [X4P-001],terminal half-life,in vivo,approximately 14.5 hrs
same,half-life,in vivo; terminal half-life,12 to 24 h
same,CD8 expression,"[1]; patient #5, post-dosing vs pre-dosing",visibly increased
same,CD8+ T cells density in tumor microenvironment,"[1]; patient #5, post-dosing, pre-dosing 1045",1370 per square millimeter
same,number of unique neighbors,"melanoma lesions; after 4 weeks of monotherapy, Day 1 3,826","5,239"
same,average distance between CD8+ T cells and the nearest tumor cell,"melanoma lesions; after 4 weeks of monotherapy, Day 1 baseline 95",43 microns
same,CD8+ T cell density,"melanoma lesions; patient 5, entire tissue sample, after monotherapy",increased
same,proliferating CD8+ T cell (Ki67+) density,"melanoma lesions; patient 5, entire tissue sample, after monotherapy, stronger impact",increased
